Where two headings read alike, the source gives them in different places.

For data set [1] the following is noted: dogs. As to the method: A six dog, two-way crossover experiment was carried out with a target dose of 6.0 mg/kg propofol administered by IV, and 30.0 mg/kg of propofol using transmucosal oral administration.
Data set [2] can be described thus: Stability of meloxicam with various solubilizing agents. As to conditions: storage with PVA, Polysorbate 80 or glycerin. Type of data set: physicochemical.
Data set [3] is described as follows: Canine anesthetized meloxicam absorption study. The following applies: TMOM.
Method: A canine anesthetized absorption study was also carried out. The subjects were anesthetized dogs using minimal pre-anesthetics (isoflurane via an endotracheal tube). The possibility of run off into and absorption by the gastrointestinal tract was prevented by obstructing the esophagus with a Foley catheter. […] Blood samples were taken 0, 5, 30 min, and 1, 2, 4, 8, 12, 24, and 72 hours post-dose. Jugular and cephalic vein samples were obtained 5, 30 min and 4, 8 hours post-dose.
Data set [4] can be described thus: pH dependence of dissolution/precipitation of 1% meloxicam. The class given is physicochemical. As to conditions: 95:5 water:propylene glycol, concentrated NaOH solution (10 M) added.
Assay in data set [5]: as above
The class given is physicochemical. As to the method:
NaOH solution (1 M) was added to the mixture to provide a pH of 10. […] Each solution was then titrated with HCl (aq). […] Similarly, for the 85:15 water:ethanol solvent system, a precipitate formed when the initial apparent pH of 12 was reduced to 7.7 (by addition of HCl).

The nature of data set [6]: Canine meloxicam absorption study (TMOM vs oral suspension). As to conditions: ~0.2 mg/kg, dogs.
Method: The average oral suspension dose was 0.20 mg/kg (range 0.19-0.21 mg/kg), and the average dose using transmucosal oral administration was 0.20 mg/kg (range 0.19-0.21 mg/kg). Blood samples were obtained at 0, 5, 30 minutes and 1, 2, 4, 8, 12, 24, 48, and 72 hours post dose.
The AUC represents the area under the curve or the total amount of drug exposure to the animal following administration by the two different dosage forms. […] Absorption half-life is the amount of time it takes for half of what is left at the site of absorption to be absorbed.
A short description of data set [7]: in vivo. As to conditions: horse, plasma, po, 0.1 mg/kg.
Method: (§2) The target dose for canine subjects was 1 mg/kg (both transmucosal oral administration and tablets). The average tablet dose was 0.96 mg/kg (0.95-0.97 mg/kg) and the average transmucosal oral administration dose was 0.97 mg/kg (0.91-1.06 mg/kg) administered in a spray volume of 400-650 μL using 4-7 pumps of the spray device. The target dose for feline subjects was also 1 mg/kg for both transmucosal oral administration and tablets. The average tablet dose of 1.07 mg/kg (0.89-1.22 mg/kg) and the average transmucosal oral administration dose was 0.95 mg/kg (0.83-1.14 mg/kg) administered in a spray volume of 100-200 μL using 1-2 pumps of the spray device. The target dose for equine subjects was 0.1 mg/kg for both transmucosal oral administration and tablets. The average tablet dose (via stomach tube) was 0.1 mg/kg (0.10-0.11 mg/kg) and the average transmucosal oral administration dose was 0.1 mg/kg (0.09-0.11 mg/kg) administered in a spray volume of 1.4-1.7 mL using 14-17 pumps of the spray device.
(§3) Blood samples were taken 5, 15, 30 min, 1, 2, 4, 7, 12, 24 hours post dose.
Data set [8] can be described thus: Clemastine two-way crossover, tablets vs TMOM, canine.
Method: as §2, §3
Data set [9] in a line: Canine anesthetized clemastine absorption study. The class given is in vivo, dog. As to conditions: anesthetized canine subjects, TMOM. How it is done:
A canine anesthetized absorption study was also carried out.

The conditions of data set [10]: equine, oral gavage; Törneke et al. 2003; cited from earlier work.
A short description of data set [11]: in vivo. As to conditions: dog, plasma, po, 1 mg/kg.
Method: as §2, §3
The nature of data set [12]: Clemastine two-way crossover, tablets (stomach tube) vs TMOM, equine.
Method: as §2, §3
The nature of data set [13]: Milbemycin canine study, tablets vs TMOM. Type of data set: in vivo, dog. The following applies: dogs. As to the method:
A twelve dog random parallel design was carried out to compare conventional oral administration (i.e., tablets) of Milbemycin with transmucosal oral administration. The tablets used were Interceptor® Flavor Tab®, 5.75 mg and 11.5 mg, providing an average dose of 0.78 mg/kg (0.50-0.99 mg/kg).

The conditions of data set [14]: cited from earlier work.
Data set [15] in a line: Zolpidem two-way crossover, tablet vs TMOM, feline. As to the method: (§1) A six animal (canine and feline) two-way crossover experiment was carried out in which the subjects were administered a zolpidem tablet or a transmucosal oral mist of a 2.5% zolpidem tartrate solution.
Feline subjects were administered tablets (average dose 0.74 mg/kg) or a transmucosal oral mist (average dose 0.72 mg/kg). The transmucosal oral mist used a spray volume of 100 μL in 1 pump of the spray dispenser.

The nature of data set [16]: Zolpidem two-way crossover, tablet vs TMOM, canine. As to conditions: for absorption time and absorption half-life, TMOM vs tablet / peak plasma concentration (Cmax), TMOM vs tablet: dogs. How it is done: as §1
Canine subjects were administered tablets (average dose 0.55 mg/kg (0.40-0.63 mg/kg)) or a transmucosal oral mist (average dose 0.55 mg/kg (0.42-0.62 mg/kg)). The transmucosal oral mist administration used a spray volume of 200-250 μL in 2-3 pumps of the spray dispenser. By comparison, the average human dose is 0.08-0.17 mg/kg

The nature of data set [17]: Canine carprofen study (caplet, TMOM, subcutaneous injection). The class given is in vivo, dog. As to conditions: dogs.
Data set [18] is described as follows: Canine anesthetized carprofen absorption study. The class given is in vivo, dog. The following applies: TMOM. As to the method:
A canine anesthetized absorption study was also carried out. […] The carprofen was administered using a transmucosal oral mist. Blood samples were taken 0, 5, 15, 30 min, and 1, 2, 4, 8, 12, and 24 hours post-dose. Jugular and cephalic vein samples were obtained 5, 15 and 30 and 1 and 2 hours post-dose. The target dosage was 2.2 mg/kg (50 mg/mL Rimadyl® injectable solution, 300 μL (15 mg), target dose range 1.9-2.5 mg/kg).

Data set [19] can be described thus: Enrofloxacin feline study, tablets vs TMOM. Type of data set: in vivo, cat. As to conditions: cats. How it is done: A six cat, two-way crossover study was carried out to compare conventional oral administration (i.e., tablets, Baytril®) with transmucosal oral administration (Baytril® 100; 100 mg of enrofloxacin, L-arginine base 200 mg, n-butyl alcohol 30 mg, benzyl alcohol (as a preservative) 20 mg, and water for injection, q.s.). The target was 5 mg/kg enrofloxacin. The average tablet dose was 4.7 mg/kg and the average TMOM™ dose was 4.9 mg/kg (250-300 μL).

Where [20] appears, read: ~0.5 mg/kg, listed as zolpidem tartrate.

On to `CC(C)c1cccc(C(C)C)c1O` [propofol], for which the “uptake using transmucosal oral administration” value in [1] was “rapid”. Moreover, the “Cmax value compared to IV administration” value in data set [1] (TMOM ~30 mg/kg vs IV ~6 mg/kg) is “somewhat lower”. In data set [1] (TMOM ~30 mg/kg, by 2 hours), the “part of transmucosally administered dose absorbed” value was “Greater than 90%”.

For `Cc1cnc(NC(=O)C2=C(O)c3ccccc3S(=O)(=O)N2C)s1` [Meloxicam, 4-hydroxy-2-methyl-N-(5-methyl-2-thiazolyl)-2H-1,2-benzothiazine-3-carboxamide-1,1-dioxide], the “physical stability of the meloxicam solution” value in data set [2] is reported as “greater with PVA than Polysorbate 80 or glycerin”. Moreover, the “jugular plasma levels as compared to cephalic (systemic) levels” value in [3] (anesthetized dogs, at 30 min and 4 h) is “higher”. The “part of the dose in an awake animal delivered transmucosally” value in [3] (dogs) is recorded as at most 90%. Besides, the “dissolution of 1% meloxicam” value in data set [4] was “did not dissolve”; in data set [5] (80% water/15% EtOH/5% Poloxamer 188, 1 M NaOH added to pH of 10), “dissolve”; in [5] (80% water/15% EtOH/5% Poloxamer 188, acidified to pH of 7 with 0.2 M HCl), “precipitate”; in data set [5] (80% water/15% EtOH/5% Poloxamer 188, additional 1 M NaOH, pH to 8), “redissolved and remained in solution”; in data set [5] (80% water/15% EtOH/5% Poloxamer 188, pH of approximately 5.8) it was “did not dissolve completely”; in data set [5] (100% water, pH adjusted to 10.1) it was “redissolved”. The “dissolution of 1% meloxicam” value in data set [5] (100% water, pH then reduced to approximately 7.8) is reported as “no further precipitation”. The “pH needed for meloxicam to remain in solution” value in data set [5] is reported as “greater than 8.0”. Also, the “pH value of solution causing meloxicam precipitation” value in data set [5] is “less than 8”. In data set [5] (1% meloxicam, 85:15 water:ethanol, initial apparent pH of 12 reduced by HCl), the “apparent pH at which a precipitate formed” value was determined as 7.7. The “pH at which meloxicam precipitation was observed” value in [5] (1% meloxicam, 100% water, titrated with HCl (aq)) was determined as 7.2. Further, the “bioequivalence to meloxicam administered via an oral suspension” value in [6] is given as “bioequivalent”.

For the compound `CN1CCC[C@@H]1CCO[C@](C)(c1ccccc1)c1ccc(Cl)cc1` [clemastine], in data set [7], the half-life is 2.8 h. The salivation result in data set [8] (canine subjects) is listed as “none to moderate”. For the same compound, in [8] (canine, ~1 mg/kg), the “peak (Cmax), transmucosal oral vs tablet” value was “much higher”. Also, the “AUC and Cmax, TMOM route vs oral tablet route” value in [8] (dogs, 1 mg/kg) is recorded as “about an order of magnitude greater”. Also, in data set [9], the “absorption via the transmucosal route” value is listed as “readily absorbed”. Besides, the t1/2 in data set [10] was 2.9 h. For the same compound, the Tmax in [11] is around 0.167 h. Also, in [12] (0.1 mg/kg), the “Tmax, transmucosal oral vs oral gavage of tablets” value is “shorter” and the “bioavailability, transmucosal oral vs oral gavage of tablets” value was “significantly better”. For the same compound, the “bioavailability of clemastine in tablet form” value in data set [12] (oral gavage) is “extremely poor”. Where the note is “cats”, the absorption entry was “well absorbed”. In addition, where the note is “feline subjects”, the salivation entry was “mild to severe”. In addition, the “AUC values, transmucosal oral vs tablet” value (feline, ~1 mg/kg, appears to be an artifact of salivation) was “Lower”.

With Milbemycin, the “variability of plasma concentrations, transmucosal vs tablet” value in data set [13] is listed as “less variable”. Besides, the “uptake by transmucosal oral administration” value in [13] (0.28 mg/kg) is recorded as “very good”. In data set [13] (corrected for dosage), the “bioavailability, transmucosal oral administration vs conventional tablet” value is reported as “similar”.

On to `C[C@H]1O[C@@H](O[C@H]2[C@@H](O)C[C@H](O[C@H]3[C@@H](O)C[C@H](O[C@H]4CC[C@@]5(C)[C@H](CC[C@@H]6[C@@H]5C[C@@H](O)[C@]5(C)[C@@H](C7=CC(=O)OC7)CC[C@]65O)C4)O[C@@H]3C)O[C@@H]2C)C[C@H](O)[C@@H]1O` [Digoxin, (3β,5β,12β)-3-[(O-2,6-dideoxy-β-D-ribo-hexopyranosyl-(1,4)-O-2,6-dideoxy-β-D-ribo-hexopyranosyl-(1,4)-O-2,6-dideoxy-β-D-ribo-hexopyranosyl)oxy]-12,14-dihydroxy-card-20(22)-enolide], for which the solubility entry is given as “slightly soluble” in data set [14] (in chloroform); “slightly soluble” in data set [14] (in diluted (e.g., about 50%) alcohol); “practically insoluble” in data set [14] (in ether); “freely soluble” in data set [14] (in pyridine); “practically insoluble” in data set [14] (in water).

As for `Cc1ccc(-c2nc3ccc(C)cn3c2CC(=O)N(C)C)cc1` [zolpidem, N,N-6-trimethyl-2-p-tolyl-imidazo[1,2-a]pyridine-3-acetamide], the “absorption time, peak plasma concentration, and total absorption, TMOM vs tablet” value in [15] (cats, within experimental error) is “comparable”. Also, the “AUC, TMOM vs tablet” value is listed as “lower” in [15] (feline, salivation can lead to reduced absorption) and “greater” in data set [16] (canine, ~0.5 mg/kg). In addition, the “vomiting after TMOM administration” value in data set [16] (canine, 12 minutes after administration) is “One of the canine subjects vomited”. In addition, the “time within which substantially all of the dose was absorbed” value in [16] (canine, TMOM) was at most 12 min. In addition, the “Tmax, TMOM vs tablet” value in [16] (canine, ~0.5 mg/kg) is “shorter”. The “absorption time and absorption half-life, TMOM vs tablet” value in [16] (~0.5 mg/kg) is listed as “shorter”; in data set [16] (setting [20]), “significantly lower (shorter)”. Besides, the “peak plasma concentration (Cmax), TMOM vs tablet” value in data set [16] (~0.5 mg/kg) was “greater”; in data set [16] (setting [20]) it was “higher”.

Regarding `CC(C(=O)O)c1ccc2c(c1)[nH]c1ccc(Cl)cc12` (stereo not shown) [carprofen], in data set [17], the “Cmax and AUC values, caplet vs transmucosal oral administration” value is given as “very similar”; the “Cmax of the subcutaneous injection relative to caplet or transmucosal oral administration” value is reported as “approximately half”; the “Tmax, transmucosal oral administration vs caplet” value is on record as “shorter”; the “absorption and Tmax, subcutaneous injection vs caplet or TMOM” value was “slower absorption and greater time to peak concentrations”. Also, the “absorption, transmucosal oral administration vs caplet” value in data set [17] is “slightly faster”. In addition, the lag time result in data set [17] (transmucosal oral administration) is on record as “no lag time”. Moreover, the “AUC values of the three administration methods” value in data set [17] (caplet, TMOM, subcutaneous injection) is “all similar”. The “plasma jugular levels as compared to cephalic levels” value in data set [18] (anesthetized dogs, at 30 min) was “higher”. The “AUC for anesthetized animals relative to awake animals” value in [18] (dogs) was “approximately 25%”.

In the case of `CCN1CCN(c2cc3c(cc2F)c(=O)c(C(=O)O)cn3C2CC2)CC1` [enrofloxacin], in data set [19] (TMOM), the “lag time in uptake” value is “no lag time”. In addition, in data set [19] (TMOM, 5 min time point), the “jugular plasma concentrations as compared to cephalic concentrations” value is “Consistently and significantly higher”. In [19] (~5 mg/kg), the “AUC, Cmax, Tmax or t1/2 values, transmucosal vs conventional administration” value is on record as “essentially no difference”.

By half-life is commonly meant the time in which the quantity being followed falls by half. One may read the Tmax as the time from dosing to the highest level.
